Results: patent US12486269B2 (Aconcagua Bio, Inc., priority 2024, dated 2025)

Tests used:
[1] = biological target: T1, COS-7/AMY3 (human calcitonin receptor (CTR) and RAMP3) (Homo sapiens, UniProt O60896+P30988); experiment: Amylin Receptor cAMP Assay II; format: cell-based; conditions: values marked **: Amylin Receptor cAMP Assay II; COS-7/AMY3 cells, cAMP dynamic 2 kit, 30 min; read-out: Amylin Receptor cAMP Stimulation Activity: EC50
T1 construct: expressed in transfected cells; host or cells: COS-7
Method in brief: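 COS-7 cells stably co-expressing human CTR and RAMP3 (AMY3), 2000 cells/well in HBSS with 20 mM HEPES, 0.5 mM IBMX, 0.1% casein, stimulated with compound for 30 min at 37 °C. cAMP measured by HTRF (665/615 nm), activity normalized between vehicle and maximal control.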

[2] = biological target: T2, human calcitonin receptor (CTR) (Homo sapiens, UniProt P30988); experiment: Calcitonin Receptor (CTR) cAMP Assay; format: cell-based; conditions: COS7-human CTR Clone #2 stable cell line, cAMP dynamic 2 kit, 30 min; read-out: Calcitonin Receptor cAMP Stimulation Activity: EC50
T2 construct: expressed in transfected cells; host or cells: COS-7 (COS7-human CTR Clone #2)
T2 sequence (P30988 25-474): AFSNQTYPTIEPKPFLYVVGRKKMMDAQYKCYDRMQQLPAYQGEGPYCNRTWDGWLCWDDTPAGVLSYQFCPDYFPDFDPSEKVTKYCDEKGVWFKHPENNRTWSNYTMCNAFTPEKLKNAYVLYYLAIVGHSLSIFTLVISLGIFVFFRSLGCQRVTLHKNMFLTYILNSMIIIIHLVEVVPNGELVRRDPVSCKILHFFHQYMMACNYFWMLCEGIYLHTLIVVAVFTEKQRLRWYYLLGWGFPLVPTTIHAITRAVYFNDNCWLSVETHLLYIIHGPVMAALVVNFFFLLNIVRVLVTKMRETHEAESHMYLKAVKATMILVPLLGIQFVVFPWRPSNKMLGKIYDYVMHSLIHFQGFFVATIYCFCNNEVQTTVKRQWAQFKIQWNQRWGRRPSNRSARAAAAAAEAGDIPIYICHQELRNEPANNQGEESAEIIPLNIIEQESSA
Method in brief: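 COS-7 cells stably expressing human CTR (2000 cells/well) were incubated 30 min at 37 °C with 4-fold serially diluted compound in HBSS/20 mM HEPES/0.5 mM IBMX/0.1% casein. cAMP was detected by HTRF (665/615 nm) after 1 h at RT. % activity was normalised to vehicle and positive controls.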

T1 sequence (O60896 24-148, one chain of several): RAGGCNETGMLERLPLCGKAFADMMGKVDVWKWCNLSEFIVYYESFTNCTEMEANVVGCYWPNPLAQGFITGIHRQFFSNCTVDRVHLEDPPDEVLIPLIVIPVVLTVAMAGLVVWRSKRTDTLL

Row | SMILES | EC50 [1] | EC50 [2]
1 | N#Cc1ccc(Cn2c(=O)oc3cc(-c4c(-c5n[nH]c(=O)o5)c(CCc5ccc(F)cc5)nc5c4S(=O)(=O)N4CCC[C@@H]54)ccc32)nc1 [Compound 213, (S)-6-((6-(2-(4-fluorophenethyl)-5,5-dioxido-3-(5-oxo-4,5-dihydro-1,3,4-oxadiazol-2-yl)-7,8,9,9a-tetrahydropyrrolo[1′,2′:2,3]isothiazolo[4,5-b]pyridin-4-yl)-2-oxobenzo[d]oxazol-3(2H)-yl)methyl)nicotinonitrile] | 53.1 nM | 0.786 nM
2 | N#Cc1ccc(Cn2ccc3cc(-c4c5c(nc(CCc6ccc(F)cc6)c4-c4n[nH]c(=O)o4)C4CCCN4C5=O)cnc32)cc1F (stereo not shown) [Compound 214, 2-fluoro-4-((5-(2-(4-fluorophenethyl)-5-oxo-3-(5-oxo-4,5-dihydro-1,3,4-oxadiazol-2-yl)-7,8,9,9a-tetrahydro-5H-pyrido[2,3-a]pyrrolizin-4-yl)-1H-pyrrolo[2,3-b]pyridin-1-yl)methyl)benzonitrile] | 129 nM | 1.92 nM
3 | COc1cccc2c1CC[C@H]2Nc1nc(C(F)(F)F)cc2cc(-c3c4c(nc(CCc5ccc(F)cc5)c3-c3n[nH]c(=O)o3)[C@@H]3CCCN3C4=O)sc12 [Compound 215, 5-((S)-2-(4-fluorophenethyl)-4-(7-(((R)-4-methoxy-2,3-dihydro-1H-inden-1-yl)amino)-5-(trifluoromethyl)thieno[2,3-c]pyridin-2-yl)-5-oxo-7,8,9,9a-tetrahydro-5H-pyrido[2,3-a]pyrrolizin-3-yl)-1,3,4-oxadiazol-2(3H)-one] | 7.23 nM | 0.406 nM
4 | COc1cccc2c1CC[C@H]2Nc1cc(C(F)(F)F)cn2cc(-c3c4c(nc(CCc5ccc(F)cc5)c3-c3n[nH]c(=O)o3)[C@@H]3CCCN3C4=O)nc12 [Compound 216, 5-((S)-2-(4-fluorophenethyl)-4-(8-(((R)-4-methoxy-2,3-dihydro-1H-inden-1-yl)amino)-6-(trifluoromethyl)imidazo[1,2-a]pyridin-2-yl)-5-oxo-7,8,9,9a-tetrahydro-5H-pyrido[2,3-a]pyrrolizin-3-yl)-1,3,4-oxadiazol-2(3H)-one] | 1340 nM | 152 nM
5 | COc1cccc2c1CC[C@H]2Nc1nccc2cc(-c3c4c(nc(C[C@H]5COc6cc(F)ccc65)c3-c3n[nH]c(=O)o3)[C@@H]3CCCN3C4=O)sc12 [Compound 217, 5-((S)-2-(((R)-6-fluoro-2,3-dihydrobenzofuran-3-yl)methyl)-4-(7-(((R)-4-methoxy-2,3-dihydro-1H-inden-1-yl)amino)thieno[2,3-c]pyridin-2-yl)-5-oxo-7,8,9,9a-tetrahydro-5H-pyrido[2,3-a]pyrrolizin-3-yl)-1,3,4-oxadiazol-2(3H)-one] | 47.8 nM | 0.706 nM
6 | COc1cccc2c1CC[C@H]2Nc1nccc2cc(-c3c4c(nc(C[C@@H]5COc6cc(F)ccc65)c3-c3n[nH]c(=O)o3)[C@@H]3CCCN3C4=O)sc12 [Compound 218, 5-((S)-2-(((S)-6-fluoro-2,3-dihydrobenzofuran-3-yl)methyl)-4-(7-(((R)-4-methoxy-2,3-dihydro-1H-inden-1-yl)amino)thieno[2,3-c]pyridin-2-yl)-5-oxo-7,8,9,9a-tetrahydro-5H-pyrido[2,3-a]pyrrolizin-3-yl)-1,3,4-oxadiazol-2(3H)-one] | 89.3 nM | 11.5 nM
7 | O=C1c2c(nc(CCc3ccc(F)cc3)c(-c3n[nH]c(=O)o3)c2-c2ccc3c(Cc4ccc(F)cc4F)nccc3c2)[C@@H]2CCCN12 [Compound 219, (S)-5-(4-(1-(2,4-difluorobenzyl)isoquinolin-6-yl)-2-(4-fluorophenethyl)-5-oxo-7,8,9,9a-tetrahydro-5H-pyrido[2,3-a]pyrrolizin-3-yl)-1,3,4-oxadiazol-2(3H)-one] | 437 nM | 27.4 nM
8 | O=C1c2c(nc(CCc3ccc(F)cc3)c(-c3n[nH]c(=O)o3)c2-c2ccc3c(c2)CCCN3Cc2ccc(F)cc2F)[C@@H]2CCCN12 [Compound 220, (S)-5-(4-(1-(2,4-difluorobenzyl)-1,2,3,4-tetrahydroquinolin-6-yl)-2-(4-fluorophenethyl)-5-oxo-7,8,9,9a-tetrahydro-5H-pyrido[2,3-a]pyrrolizin-3-yl)-1,3,4-oxadiazol-2(3H)-one] | 11400 nM | 20.5 nM
9 | O=C1c2c(nc(CCc3ccc(F)cc3)c(-c3n[nH]c(=O)o3)c2-c2ccc3c(Cc4ccc(F)cc4F)noc3c2)[C@@H]2CCCN12 [Compound 221, (S)-5-(4-(3-(2,4-difluorobenzyl)benzo[d]isoxazol-6-yl)-2-(4-fluorophenethyl)-5-oxo-7,8,9,9a-tetrahydro-5H-pyrido[2,3-a]pyrrolizin-3-yl)-1,3,4-oxadiazol-2(3H)-one] | 865 nM | 15.5 nM
10 | O=C1c2c(nc(CCc3ccc(F)cc3)c(-c3n[nH]c(=O)o3)c2-c2ccc3c(Cc4ccc(F)cn4)noc3c2)[C@@H]2CCCN12 [Compound 222, (S)-5-(2-(4-fluorophenethyl)-4-(3-((5-fluoropyridin-2-yl)methyl)benzo[d]isoxazol-6-yl)-5-oxo-7,8,9,9a-tetrahydro-5H-pyrido[2,3-a]pyrrolizin-3-yl)-1,3,4-oxadiazol-2(3H)-one] | 511 nM | 12.8 nM
11 | N#Cc1ccc(Cn2ccc3cc(-c4c5c(nc(CCc6ccc(F)cc6)c4-c4n[nH]c(=O)o4)[C@@H]4CCCN4C5=O)cnc32)nc1 [Compound 223, (S)-6-((5-(2-(4-fluorophenethyl)-5-oxo-3-(5-oxo-4,5-dihydro-1,3,4-oxadiazol-2-yl)-7,8,9,9a-tetrahydro-5H-pyrido[2,3-a]pyrrolizin-4-yl)-1H-pyrrolo[2,3-b]pyridin-1-yl)methyl)nicotinonitrile] | 758 nM | 27.6 nM
12 | COc1cccc2c1CC[C@H]2Nc1nccc2cc(-c3c4c(nc(C[C@H]5CCc6cc(F)ccc65)c3-c3n[nH]c(=O)o3)[C@@H]3CCCN3C4=O)sc12 [Compound 224, 5-((S)-2-(((R)-5-fluoro-2,3-dihydro-1H-inden-1-yl)methyl)-4-(7-(((R)-4-methoxy-2,3-dihydro-1H-inden-1-yl)amino)thieno[2,3-c]pyridin-2-yl)-5-oxo-7,8,9,9a-tetrahydro-5H-pyrido[2,3-a]pyrrolizin-3-yl)-1,3,4-oxadiazol-2(3H)-one] | 50.7 nM | 0.702 nM
13 | COc1cccc2c1CC[C@H]2Nc1nccc2cc(-c3c4c(nc(CCc5ccc(F)cc5)c3-c3n[nH]c(=O)s3)[C@@H]3CCCN3C4=O)sc12 [Compound 225, 5-((S)-2-(4-fluorophenethyl)-4-(7-(((R)-4-methoxy-2,3-dihydro-1H-inden-1-yl)amino)thieno[2,3-c]pyridin-2-yl)-5-oxo-7,8,9,9a-tetrahydro-5H-pyrido[2,3-a]pyrrolizin-3-yl)-1,3,4-thiadiazol-2(3H)-one] | 14.6 nM | 0.836 nM
14 | O=C1c2c(nc(CCc3ccc(F)cc3)c(-c3n[nH]c(=O)o3)c2-c2cc3ccnc(N[C@@H]4CCc5ccccc54)c3s2)[C@@H]2CCCN12 [Compound 226, 5-((S)-4-(7-(((R)-2,3-dihydro-1H-inden-1-yl)amino)thieno[2,3-c]pyridin-2-yl)-2-(4-fluorophenethyl)-5-oxo-7,8,9,9a-tetrahydro-5H-pyrido[2,3-a]pyrrolizin-3-yl)-1,3,4-oxadiazol-2(3H)-one] | 14.2 nM | 1.08 nM
